Data from patent US10442807B2, “Aryl substituted bicyclic compounds as herbicides” (FMC Corporation, priority 2015, dated 2019).

Key:
Format in all cases: in vivo
[1] = test system: pigweed (Amaranthus retroflexus); assay: Test A preemergence, directed soil spray, visual injury rating; conditions: approx. 10 d, 0 = no effect, 100 = complete control
Outline: (§1)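 Rated visually against untreated controls after approx. 10 d in greenhouse, scale 0 = no effect, 100 = complete control. Seeded loam/sand blend given directed soil spray preemergence, or plants sprayed at one- to two-leaf stage, 2-10 cm tall; surfactant-containing non-phytotoxic solvent formulation.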

[2] = test system: ragweed (common ragweed, Ambrosia elation); assay: as above; conditions: approx. 10 d, 0 = no effect, 100 = complete control
Outline: as §1

[3] = test system: foxtail, giant (giant foxtail, Setaria faberii); assay: as above; conditions: approx. 10 d, 0 = no effect, 100 = complete control
Outline: as §1

[4] = test system: ryegrass, Italian (Italian ryegrass, Lolium multiflorum); assay: as above; conditions: approx. 10 d, 0 = no effect, 100 = complete control
Outline: as §1

kochia (Kochia scoparia) [5] = assay: as above; conditions: approx. 10 d, 0 = no effect, 100 = complete control
Outline: as §1

[6] = test system: barnyardgrass (Echinochloa crus-galli); assay: as above; conditions: approx. 10 d, 0 = no effect, 100 = complete control
Outline: as §1

[7] = test system: sedge, umbrella (small-flower umbrella sedge, Cyperus difformis); assay: Test B flooded paddy test, visual plant response rating; conditions: applied to paddy water at 2-leaf stage, rated after 13 to 15 days, scale 0 to 100, 0 is no effect, 100 is complete control
Outline: (§2)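 Visual injury score 0 to 100 against controls (0 = no effect, 100 = complete control), taken 13–15 days after treatment. Test compound went into the paddy water of pots flooded 3 cm over the soil surface, water kept at that depth in greenhouse.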

rice (Oryza sativa) = assay: as above; conditions: applied to paddy water at 2-leaf stage, rated after 13 to 15 days, scale 0 to 100, 0 is no effect, 100 is complete control
Outline: as §2

[8] = test system: barnyardgrass (Echinochloa crus-galli); assay: as above; conditions: applied to paddy water at 2-leaf stage, rated after 13 to 15 days, scale 0 to 100, 0 is no effect, 100 is complete control
Outline: as §2

[9] = test system: ducksalad (Heteranthera limosa); assay: as above; conditions: applied to paddy water at 2-leaf stage, rated after 13 to 15 days, scale 0 to 100, 0 is no effect, 100 is complete control
Outline: as §2

corn (Zea mays) = assay: Test A postemergence application, visual injury rating; conditions: approx. 10 d, 0 = no effect, 100 = complete control
Outline: as §1

[10] = test system: pigweed (Amaranthus retroflexus); assay: as above; conditions: approx. 10 d, 0 = no effect, 100 = complete control
Outline: as §1

[11] = test system: blackgrass (Alopecurus myosuroides); assay: as above; conditions: approx. 10 d, 0 = no effect, 100 = complete control
Outline: as §1

[12] = test system: ragweed (common ragweed, Ambrosia elation); assay: as above; conditions: approx. 10 d, 0 = no effect, 100 = complete control
Outline: as §1

[13] = test system: foxtail, giant (giant foxtail, Setaria faberii); assay: as above; conditions: approx. 10 d, 0 = no effect, 100 = complete control
Outline: as §1

[14] = test system: ryegrass, Italian (Italian ryegrass, Lolium multiflorum); assay: as above; conditions: approx. 10 d, 0 = no effect, 100 = complete control
Outline: as §1

kochia (Kochia scoparia) [15] = assay: as above; conditions: approx. 10 d, 0 = no effect, 100 = complete control
Outline: as §1

[16] = test system: galium (catchweed bedstraw, Galium aparine); assay: as above; conditions: approx. 10 d, 0 = no effect, 100 = complete control
Outline: as §1

[17] = test system: wheat (Triticum aestivum); assay: as above; conditions: approx. 10 d, 0 = no effect, 100 = complete control
Outline: as §1

[18] = test system: barnyardgrass (Echinochloa crus-galli); assay: as above; conditions: approx. 10 d, 0 = no effect, 100 = complete control
Outline: as §1

Structure (SMILES)	Pigweed plant response rating (0 to 100 scale) ([1]; 125 g ai/ha)	Pigweed plant response rating (0 to 100 scale) ([1]; 500 g ai/ha)	Ragweed plant response rating (0 to 100 scale) ([2]; 125 g ai/ha)	Ragweed plant response rating (0 to 100 scale) ([2]; 500 g ai/ha)	Foxtail, Giant plant response rating (0 to 100 scale) ([3]; 125 g ai/ha)	Foxtail, Giant plant response rating (0 to 100 scale) ([3]; 500 g ai/ha)	Ryegrass, Italian plant response rating (0 to 100 scale) ([4]; 125 g ai/ha)	Ryegrass, Italian plant response rating (0 to 100 scale) ([4]; 500 g ai/ha)	Kochia plant response rating (0 to 100 scale) (kochia (Kochia scoparia) [5]; 125 g ai/ha)	Kochia plant response rating (0 to 100 scale) (kochia (Kochia scoparia) [5]; 500 g ai/ha)	Barnyardgrass plant response rating (0 to 100 scale) ([6]; 125 g ai/ha)	Barnyardgrass plant response rating (0 to 100 scale) ([6]; 500 g ai/ha)	Corn plant response rating (0 to 100 scale) (corn (Zea mays); 125 g ai/ha)	Corn plant response rating (0 to 100 scale) (corn (Zea mays); 500 g ai/ha)	Pigweed plant response rating (0 to 100 scale) ([10]; 125 g ai/ha)	Pigweed plant response rating (0 to 100 scale) ([10]; 500 g ai/ha)	Blackgrass plant response rating (0 to 100 scale) ([11]; 125 g ai/ha)	Blackgrass plant response rating (0 to 100 scale) ([11]; 500 g ai/ha)	Ragweed plant response rating (0 to 100 scale) ([12]; 125 g ai/ha)	Ragweed plant response rating (0 to 100 scale) ([12]; 500 g ai/ha)	also measured
Cc1ccc(C2Cn3c(C)nnc3C2C(=O)Nc2cccc(F)c2F)cc1C (stereo not drawn) [Compound 19]	0	0	0	0	70	90	0	20	0	30	50	90	0	30	0	0	0	70	0	20	Plant response rating, Flood, Sedge, Umbrella ([7]; 250 g ai/ha): 0; Plant response rating, Flood, Rice (rice (Oryza sativa); 250 g ai/ha): 0; Plant response rating, Flood, Barnyardgrass ([8]; 250 g ai/ha): 30; Plant response rating, Flood, Ducksalad ([9]; 250 g ai/ha): 20; Foxtail, Giant plant response rating (0 to 100 scale) ([13]; 125 g ai/ha): 30; Foxtail, Giant plant response rating (0 to 100 scale) ([13]; 500 g ai/ha): 80; Ryegrass, Italian plant response rating (0 to 100 scale) ([14]; 125 g ai/ha): 0; Ryegrass, Italian plant response rating (0 to 100 scale) ([14]; 500 g ai/ha): 20; Kochia plant response rating (0 to 100 scale) (kochia (Kochia scoparia) [15]; 125 g ai/ha): 0; Kochia plant response rating (0 to 100 scale) (kochia (Kochia scoparia) [15]; 500 g ai/ha): 20; Galium plant response rating (0 to 100 scale) ([16]; 125 g ai/ha): 0; Galium plant response rating (0 to 100 scale) ([16]; 500 g ai/ha): 50; Wheat plant response rating (0 to 100 scale) ([17]; 125 g ai/ha): 0; Wheat plant response rating (0 to 100 scale) ([17]; 500 g ai/ha): 30; Barnyardgrass plant response rating (0 to 100 scale) ([18]; 125 g ai/ha): 60; Barnyardgrass plant response rating (0 to 100 scale) ([18]; 500 g ai/ha): 90
CCc1ccc(C2Cn3cnnc3C2C(=O)Nc2cccc(F)c2C)cc1 (stereo not drawn) [Compound 28]	0	0	0	30	70	90	0	30	60	60	60	90	0	0	0	0	20	40	0	0	Plant response rating, Flood, Sedge, Umbrella ([7]; 250 g ai/ha): 75; Plant response rating, Flood, Rice (rice (Oryza sativa); 250 g ai/ha): 20; Plant response rating, Flood, Barnyardgrass ([8]; 250 g ai/ha): 40; Plant response rating, Flood, Ducksalad ([9]; 250 g ai/ha): 90; Foxtail, Giant plant response rating (0 to 100 scale) ([13]; 125 g ai/ha): 40; Foxtail, Giant plant response rating (0 to 100 scale) ([13]; 500 g ai/ha): 60; Ryegrass, Italian plant response rating (0 to 100 scale) ([14]; 125 g ai/ha): 0; Ryegrass, Italian plant response rating (0 to 100 scale) ([14]; 500 g ai/ha): 50; Kochia plant response rating (0 to 100 scale) (kochia (Kochia scoparia) [15]; 125 g ai/ha): 20; Kochia plant response rating (0 to 100 scale) (kochia (Kochia scoparia) [15]; 500 g ai/ha): 50; Galium plant response rating (0 to 100 scale) ([16]; 125 g ai/ha): 20; Galium plant response rating (0 to 100 scale) ([16]; 500 g ai/ha): 30; Wheat plant response rating (0 to 100 scale) ([17]; 125 g ai/ha): 0; Wheat plant response rating (0 to 100 scale) ([17]; 500 g ai/ha): 0; Barnyardgrass plant response rating (0 to 100 scale) ([18]; 125 g ai/ha): 50; Barnyardgrass plant response rating (0 to 100 scale) ([18]; 500 g ai/ha): 80
O=C(Nc1ccccc1F)C1c2nncn2CC1c1cccc(C(F)(F)F)c1 (stereo not drawn) [Compound 2, N-(2-fluorophenyl)-6,7-dihydro-6-[3-(trifluoromethyl)phenyl]-5H-pyrrolo[2,1-c]-1,2,4-triazole-7-carboxamide]	0	0	0	0	90	90	0	0	0	0	60	90	20	40	0	10	40	70	0	10	Plant response rating, Flood, Sedge, Umbrella ([7]; 500 g ai/ha): 0; Plant response rating, Flood, Rice (rice (Oryza sativa); 500 g ai/ha): 0; Plant response rating, Flood, Barnyardgrass ([8]; 500 g ai/ha): 0; Plant response rating, Flood, Ducksalad ([9]; 500 g ai/ha): 0; Foxtail, Giant plant response rating (0 to 100 scale) ([13]; 125 g ai/ha): 50; Foxtail, Giant plant response rating (0 to 100 scale) ([13]; 500 g ai/ha): 90; Ryegrass, Italian plant response rating (0 to 100 scale) ([14]; 125 g ai/ha): 0; Ryegrass, Italian plant response rating (0 to 100 scale) ([14]; 500 g ai/ha): 50; Kochia plant response rating (0 to 100 scale) (kochia (Kochia scoparia) [15]; 125 g ai/ha): 0; Kochia plant response rating (0 to 100 scale) (kochia (Kochia scoparia) [15]; 500 g ai/ha): 30; Galium plant response rating (0 to 100 scale) ([16]; 125 g ai/ha): 50; Galium plant response rating (0 to 100 scale) ([16]; 500 g ai/ha): 50; Wheat plant response rating (0 to 100 scale) ([17]; 125 g ai/ha): 0; Wheat plant response rating (0 to 100 scale) ([17]; 500 g ai/ha): 50; Barnyardgrass plant response rating (0 to 100 scale) ([18]; 125 g ai/ha): 60; Barnyardgrass plant response rating (0 to 100 scale) ([18]; 500 g ai/ha): 80
Cc1nnc2n1CC(c1ccc(C(F)(F)F)cc1)C2C(=O)Nc1ccccc1C(F)(F)F (stereo not drawn) [Compound 6]	0	40	0	0	0	90	40	60	0	0	0	40	0	0	0	0	0	20	0	0	Plant response rating, Flood, Sedge, Umbrella ([7]; 250 g ai/ha): 0; Plant response rating, Flood, Rice (rice (Oryza sativa); 250 g ai/ha): 0; Plant response rating, Flood, Barnyardgrass ([8]; 250 g ai/ha): 0; Plant response rating, Flood, Ducksalad ([9]; 250 g ai/ha): 0; Foxtail, Giant plant response rating (0 to 100 scale) ([13]; 125 g ai/ha): 0; Foxtail, Giant plant response rating (0 to 100 scale) ([13]; 500 g ai/ha): 30; Ryegrass, Italian plant response rating (0 to 100 scale) ([14]; 125 g ai/ha): 0; Ryegrass, Italian plant response rating (0 to 100 scale) ([14]; 500 g ai/ha): 20; Kochia plant response rating (0 to 100 scale) (kochia (Kochia scoparia) [15]; 125 g ai/ha): 0; Kochia plant response rating (0 to 100 scale) (kochia (Kochia scoparia) [15]; 500 g ai/ha): 0; Galium plant response rating (0 to 100 scale) ([16]; 125 g ai/ha): 0; Galium plant response rating (0 to 100 scale) ([16]; 500 g ai/ha): 30; Wheat plant response rating (0 to 100 scale) ([17]; 125 g ai/ha): 0; Wheat plant response rating (0 to 100 scale) ([17]; 500 g ai/ha): 0; Barnyardgrass plant response rating (0 to 100 scale) ([18]; 125 g ai/ha): 0; Barnyardgrass plant response rating (0 to 100 scale) ([18]; 500 g ai/ha): 40
